What all share (design): species or system Severe acute respiratory syndrome-related coronavirus
The nature of test [1]: Inhibition of SARS-CoV Main protease assessed as inhibition constant.
Test [2] in a line: Inhibition of His-tagged SARS-CoV 3CLpro using Abz-SVTLQSG-Tyr(NO2)R as substrate by fluorometric assay.
Test [3] can be described thus: Inhibition of SARS-CoV Main protease.

One may read the Ki as a measure of affinity in units of concentration, obtained from inhibition or displacement. `Cc1cc(C(=O)N[C@@H](C)C(=O)N[C@H](C(=O)N[C@@H](CC(C)C)C(=O)N[C@H](/C=C/C(=O)OCc2ccccc2)C[C@@H]2CCNC2=O)C(C)(C)C)no1`: the inhibition constant (Ki) in test [1] came to 3300 nM. By IC50 is commonly meant the concentration that inhibits the measured activity by half. `CC(=O)N[C@H](CN[C@H](C(=O)N[C@@H](CC(C)C)C(=O)N[C@@H](C[C@@H]1CCNC1=O)C(=O)Cn1[nH]c(=O)c2c([N+](=O)[O-])cccc2c1=O)[C@@H](C)OCc1ccccc1)C(C)C` gave a half-maximal inhibitory concentration (IC50) in test [2] of 600 nM. The compound `CC(C)(C)c1ccc(N(C(=O)c2cnc[nH]2)[C@@H](C(=O)NC2CCCCC2)c2cccnc2)cc1` had an IC50 in test [3] of 1600 nM.

These data come from ChEMBL document CHEMBL6114978, “Rational design and synthesis of pyrazole derivatives as potential SARS-CoV-2 Mpro inhibitors: An integrated approach merging combinatorial chemistry, molecular docking, and deep learning” (Bioorg Med Chem, 2025).
